In US12122812B2, “Method for preparing biomaterial having selectively functionalized tyrosine, biomaterial having selectively functionalized tyrosine, and pharmaceutical composition containing same as active ingredient” (SEOUL NATIONAL UNIVERSITY R&DB FOUNDATION, priority 2018, dated 2024):

Experiments:
HeLa cells = experiment: Cytotoxicity by cell counting kit-8 (CCK-8) viability test; format: cell-based; details: 0.1 to 100 μM
Procedure: The cytotoxicity was evaluated in HeLa cells by cell counting kit-8 (CCK-8) viability test.
Particularly, HeLa cells were seeded in a 96-well tissue culture plate at the density of 5,000 cells/well and cultured in 100 μL of DMEM (Dulbecco's Modified Eagle's Medium) supplemented with 10% FBS (fetal bovine serum) for 24 hours. After replacing the medium with 90 μL of a fresh medium, 10 μl of the compound prepared in Preparative Example 4 of various concentrations (final 0.5% DMSO) was added to each well of the plate, and the cells were further cultured for 24 hours and 48 hours. The cells were washed 3 times with a fresh medium to remove extracellular samples, and 100 μl of a fresh medium containing 10% CCK-8 was added to each well of the plate. After incubating the cells at 37° C. for 2 hours, OD450 was measured with a microplate reader (Molecular Devices Co., Menlo Park, Calif., USA). Only the background signal of CCK-8 was subtracted from all the samples. The cell viability was evaluated as the percentage of absorbance of the untreated cells to the control.

Balb/c mice = experiment: Hematopoietic function of PEGylated rhEPO: hematocrit (HCT) in mice; format: in vivo; details: normal male Balb/c mice, intravenous 20 μg/kg every 3 days
Procedure: In order to confirm whether the PEGylated rhEPO obtained in Example 1 maintained the hematopoietic function even after the PEGylation, the following experiment was performed, and the results are shown in FIG. 6.
The rhEPO without PEGylation and the PEGylated rhEPO (PEG-rhEPO) prepared in Example 1 were intravenously injected into Balb/c mice at a dose of 20 μg/kg every 3 days. In vivo activities were compared by measuring hematocrit (HCT), a reliable method for quantification of erythrocytes. As a control, phosphate buffered saline (PBS) was used.
Particularly, normal male Balb/c mice were purchased from Orient Bio Inc. (South Korea). The weight of the mice was 23-25 g, and the mice were housed in groups of 3-4 mice in one cage. Food and water were supplied freely (ad libitum), and each cage was allowed to have a 12-hour light/dark cycle under the conventional animal experiment system of KPC, Korea.
Each sample (rhEPO or PEG-rhEPO) ([…] in DPBS) was injected intravenously into normal male Balb/c mice (50 μL/mouse) every 3 days for 2 weeks. The same amount of DPBS was administered to the control group. A total of 21 mice were used in the experiment. Blood samples were collected every 3 days including day 0 to evaluate the hematopoietic effect. Hematocrit was evaluated by measuring the volume of the packed cells obtained by centrifugation performed immediately after the blood collection. Delta hematocrit (DHematocrit) was determined by the difference between the initial hematocrit for each mouse (day 0) and the hematocrit at each time point.

Row | Compound | Cytotoxicity (cell viability, CCK-8) (HeLa cells; 24 hours) | Cytotoxicity (cell viability, CCK-8) (HeLa cells; 48 hours) | HCT level compared with rhEPO without PEGylation (statistical analysis) (Balb/c mice) | HCT level (hematocrit) over time (Balb/c mice; blood sampled every 3 days for 15 days) | HCT level compared with control group (statistical analysis) (Balb/c mice; control PBS/DPBS)
1 | N[C@@H](Cc1ccc(OS(=O)(=O)Oc2ccc(C[C@H](N)C(=O)O)cc2)cc1)C(=O)O [Preparative Example 4, (2S,2'S)-3,3′-((sulfonylbis(oxy))bis(4,1-phenylene))bis(2-aminopropanoic Acid)] | did not show cytotoxicity | did not show cytotoxicity |  |  | 
2 | PEG-rhEPO: PEGylated recombinant human erythropoietin, PEG bound by sulfate bond to Tyr-49 |  |  | no significant difference | increased for 15 days | clear difference
